Data reported in patent US20060116390A1, “Hepatitis c virus inhibitors” (priority 2003, published 2006).
Structures can show the parent of a compound that is named as a salt. Where two headings read alike, the source gives them in different places.

Test system: HCV proteins in Rep5.1 cells (replicon cell line)
Assay: Inhibitory activity of HCV: cell-based ELISA in replicon cell line Rep5.1 (decrease of HCV proteins)
Design: species or system hepatitis C virus
Description: In order to, screen and evaluate the anti-HCV therapeutic agents in cell level, the following experiments are carried out using a replicon cell line, Rep5.1 [Lohmann, et al., Replication of subgenomic hepatitis C virus RNAs in a hepatoma cell line. Science 285:110-113 (1999)].
Rep5.1 cells, the replicon cell line, are cultured in DMEM-10 containing 500 μg/ml of G418. The Rep5.1 cells in log phase are suspended by trypsin treatment, and 5000 cells are distributed to each well of a 96-well plate. After 4 hours when the cells are attached to the plate, the serially diluted drug is added to each well. After 48 hours, a part of the treated cells are observed by microscope, and MTT assay is carried out to evaluate the drug toxicity. The cytotoxicity is estimated in percentage based on the control containing no drug. After 72 hours, the remaining cells are fixed by methanol/acetone (50/50, v/v), and the decrease of HCV proteins is measured by using HCV antibody. The extent of decrease is estimated in percentage based on the control containing no drug, and the concentration of drug at which 50% of proteins is decreased is determined to be IC50. The compounds showing activity via this procedure are validated by Western blotting. In order to find out whether the decrease of HCV protein is related to the decrease of replicon RNA, Rep5.1 cell is treated with some selected drugs for 72 hours, RNA is purified, dot blotted, and hybridized with isotope labelled nucleic acid to determine the amounts of actin mRNA and replicon RNA, and finally the amount of RNA is compared.
Plasma samples from 300 persons positive to the hepatitis C antibody test were screened by antibody diagnosis kit produced by LG life Sciences Ltd. (LG HCD3.0 TMB) to select 40 plasma samples having high titer. Replicon cell line and Huh-7 cell line each were cultured in a 96-well cell culture plate, fixed by methanol/acetone (1:1) mixture, and blocked by 3% skimmed milk. The 40 plasma sanples selected above were 100-fold diluted and aided thereto, and the bound antibodies were probed by anti-Human goat antibody (Sigma) to which Horse Radish Peroxidase is attached. As a result, 12 plasma samples having low specificity to Huh-7 cell line, but high specificity to replicon cell line were obtained. These plasma samples were used in the following cell-based ELISA.
Rep5.1 cells were cultured in DMEM-10 containing 500 μg/ml of G418. The Rep5.1 cells in log phase were suspended by trypsin treatment, and 5000 cells were distributed to each well of a 96-well pate. After 4 hours for which the cells were attached to the plate, the serially diluted drug was added to each well. After 72 hours, the cells were fixed by methanol/acetone (50/50, v/v), and the decrease of HCV proteins was measured by using HCV antibody obtained as above. The extent of decrease was estimated in percentage based on the control containing no drug, and the concentration of drug at which 50% of proteins was decreased was determined to be IC50.

[1] = Hepatitis C virus, 72 h, Rep5.1 cells, 72 hours with drug, concentration at which 50% of HCV proteins was decreased, Table 2, read-out: IC50
[2] = Hepatitis C virus, 72 h, Rep5.1 cells, 72 hours with drug, decrease of HCV proteins measured by HCV antibody, Table 1, read-out: Level (IC50 values classified)

Row | SMILES | IC50 [1] | IC50 [2] | IC50 (Rep5.1 cells, 72 hours with drug, concentration at which 50% of HCV proteins was decreased, Table 2, read-out: IC50) | IC50 (Hepatitis C virus, 72 h) | IC50 (Hepatitis C virus, 72 h, read-out: Level (IC50 values classified))
1 | CC1=C(C(=O)OCC2COc3ccccc3O2)CNC(=S)N1 (centres unmarked) [Compound 195, 6-methyl-2-thioxo-1,2,3,4-tetrahydro-pyrimidine-5-carboxylic acid 2,3-dihydro-benzo[1,4]dioxin-2-ylmethyl ester] | 2000 nM | 1000 to 10000 nM | – | – | –
2 | COCCN(C)c1ccc(CCCOC(=O)C2=C(C)NC(=S)NC2CF)cc1 (centres unmarked) [59′, 4-fluoromethyl-6-methyl-2-thioxo-1,2,3,4-tetrahydro-pyrimidine-5-carboxylic acid 3-{4-[(2-methoxy-ethyl)-methyl-amino]-phenyl}-propyl ester] | 34000 nM | > 20000 nM | – | – | –
3 | CC1=C(C(=O)OCc2ccc(C(C)(C)C)cc2)CNC(=S)N1 [Compound 45, 6-methyl-2-thioxo-1,2,3,4-tetrahydro-pyrimidine-5-carboxylic acid 4-t-butyl-benzyl ester] | < 400 nM | < 1000 nM | – | – | –
4 | CC1=C(C(=O)OCCc2cccc([N+](=O)[O-])c2)C(COC(=O)c2ccc(C(=O)O)cc2)NC(=S)N1 (centres unmarked) [90″, terephthalic acid mono-{6-methyl-5-[2-(3-nitro-phenyl)-ethoxycarbonyl]-2-thioxo-1,2,3,4-tetrahydro-pyrimidin-4-ylmethyl}ester] | 6900 nM | 1000 to 10000 nM | – | – | –
5 | CCc1ccc(CCOC(=O)C2=C(C)NC(=S)NC2)o1 [22′, 6-methyl-2-thioxo-1,2,3,4-tetrahydro-pyrimidine-5-carboxylic acid 2-(5-ethyl-furan-2-yl)-ethyl ester] | < 400 nM | < 1000 nM | – | – | –
6 | CC1=C(C(=O)OCc2ccccc2)CNC(=S)N1 [Compound 6, 6-methyl-2-thioxo-1,2,3,4-tetrahydro-pyrimidine-5-carboxylic acid benzyl ester] | 1000 nM | < 1000 nM | – | – | –
7 | CC1=C(C(=O)OCc2cc(C(F)(F)F)cc(C(F)(F)F)c2)CNC(=S)N1 [Compound 148, 6-methyl-2-thioxo-1,2,3,4-tetrahydro-pyrimidine-5-carboxylic acid 3,5-bis-trifluoromethyl-benzyl ester] | < 400 nM | < 1000 nM | – | – | –
8 | CCCN(CCC)c1ccc(CCOC(=O)C2=C(C)NC(=S)NC2CO)cc1[N+](=O)[O-] (centres unmarked) [93″, 4-Hydroxymethyl-6-methyl-2-thioxo-1,2,3,4-tetrahydro-pyrimidine-5-carboxylic acid 2-(4-dipropylamino-3-nitro-phenyl)-ethyl ester] | 500 nM | < 1000 nM | – | – | –
9 | CC1=C(C(=O)OCCc2c(F)c(F)c(F)c(F)c2F)C(CF)NC(=S)N1 (centres unmarked) [60′, 4-fluoromethyl-6-methyl-2-thioxo-1,2,3,4-tetrahydro-pyrimidine-5-carboxylic acid 2-pentafluorophenyl-ethyl ester] | – | – | 4000 nM | – | –
10 | CC1=C(C(=O)OCCc2ccsc2)C(CO)NC(=S)N1 (centres unmarked) [3″, 4-hydroxymethyl-6-methyl-2-thioxo-1,2,3,4-tetrahydro-pyrimidine-5-carboxylic acid 2-thiophen-3-yl-ethyl ester] | 9000 nM | 1000 to 10000 nM | – | – | –
11 | CC1=C(C(=O)OCc2cc(Br)cs2)CNC(=S)N1 [Compound 204, 6-methyl-2-thioxo-1,2,3,4-tetrahydro-pyrimidine-5-carboxylic acid 4-bromo-thiophen-2-ylmethyl ester] | < 400 nM | < 1000 nM | – | – | –
12 | CC1=C(C(=O)OCCCc2cccs2)CNC(=S)N1 [9′, 6-methyl-2-thioxo-1,2,3,4-tetrahydro-pyrimidine-5-carboxylic acid 3-thiophen-2-yl-propyl ester] | < 400 nM | < 1000 nM | – | – | –
13 | CC1=C(C(=O)OCc2cc(Cl)ccc2[N+](=O)[O-])C(CO)NC(=S)N1 (centres unmarked) [47″, 4-hydroxymethyl-6-methyl-2-thioxo-1,2,3,4-tetrahydro-pyrimidine-5-carboxylic acid 5-chloro-2-nitro-benzyl ester] | > 100000 nM | > 20000 nM | – | – | –
14 | CCn1c2ccccc2c2cc(COC(=O)C3=C(C)NC(=S)NC3)ccc21 [Compound 147, 6-methyl-2-thioxo-1,2,3,4-tetrahydro-pyrimidine-5-carboxylic acid 9-ethyl-9H-carbazol-3-ylmethyl ester] | < 400 nM | < 1000 nM | – | – | –
15 | CC1=C(C(=O)OCCc2ccc(N(C)C)cc2)CNC(=S)N1 [Compound 95, 6-methyl-2-thioxo-1,2,3,4-tetrahydro-pyrimidine-5-carboxylic acid 2-(4-dimethylamino-phenyl)-ethyl ester] | 700 nM | < 1000 nM | – | – | –
16 | CC1=C(C(=O)OCCc2cccc(Cl)c2)C(COC(=O)NCCN(C)C)NC(=S)N1 (centres unmarked) [86″, 4-(2-dimethylamino-ethylcarbamoyloxymethyl)-6-methyl-2-thioxo-1,2,3,4-tetrahydro-pyrimidine-5-carboxylic acid 2-(3-chloro-phenyl)-ethyl ester trifluoroacetate] | – | – | – | 700 nM | < 1000 nM
17 | CC1=C(C(=O)OCc2cccc(SC(F)(F)F)c2)C(CF)NC(=S)N1 (centres unmarked) [72′, 4-fluoromethyl-6-methyl-2-thioxo-1,2,3,4-tetrahydro-pyrimidine-5-carboxylic acid 3-trifluoromethylsulfanyl-benzyl ester] | < 400 nM | < 1000 nM | – | – | –
18 | CC1=C(C(=O)OCc2cc(Cl)cc(Cl)c2)C(COS(C)(=O)=O)NC(=S)N1 (centres unmarked) [50″, 4-methanesulfonyloxymethyl-6-methyl-2-thioxo-1,2,3,4-tetrahydro-pyrimidine-5-carboxylic acid 3,5-dichloro-benzyl ester] | 68000 nM | > 20000 nM | – | – | –
19 | CC1=C(C(=O)OCC2CCC2)CNC(=S)N1 [Compound 80, 6-methyl-2-thioxo-1,2,3,4-tetrahydro-pyrimidine-5-carboxylic acid cyclobutylmethyl ester] | 2300 nM | 1000 to 10000 nM | – | – | –
20 | CC1=C(C(=O)OCCc2ccc(N(C)C)cc2)C(CO)NC(=S)N1 (centres unmarked) [12″, 4-hydroxymethyl-6-methyl-2-thioxo-1,2,3,4-tetrahydro-pyrimidine-5-carboxylic acid 2-(4-dimethylamino-phenyl)-ethyl ester] | 31000 nM | > 20000 nM | – | – | –
21 | CC1=C(C(=O)OCCCc2sccc2C)C(CO)NC(=S)N1 (centres unmarked) [17″, 4-hydroxymethyl-6-methyl-2-thioxo-1,2,3,4-tetrahydro-pyrimidine-5-carboxylic acid 3-(3-methyl-thiophen-2-yl)-propyl ester] | 9000 nM | 1000 to 10000 nM | – | – | –
22 | CC1=C(C(=O)OCCCc2ccc(C(F)(F)F)cc2)CNC(=S)N1 [Compound 107, 6-methyl-2-thioxo-1,2,3,4-tetrahydro-pyrimidine-5-carboxylic acid 3-(4-trifluoromethyl-phenyl)-propyl ester] | < 400 nM | < 1000 nM | – | – | –
23 | CC(C)=CCCC(C)=CCOC(=O)C1=C(C)NC(=S)NC1 [Compound 56, 6-methyl-2-thioxo-1,2,3,4-tetrahydro-pyrimidine-5-carboxylic acid 3,7-dimethyl-octa-2,6-dienyl ester] | < 500 nM | < 1000 nM | – | – | –
24 | CC1=C(C(=O)OCCc2ccccc2Cl)CNC(=S)N1 [Compound 118, 6-methyl-2-thioxo-1,2,3,4-tetrahydro-pyrimidine-5-carboxylic acid 2-(2-chloro-phenyl)-ethyl ester] | < 400 nM | < 1000 nM | – | – | –
25 | CC1=C(C(=O)OCCc2cccc([N+](=O)[O-])c2)C(CO)NC(=S)N1 (centres unmarked) [32″, 4-hydroxymethyl-6-methyl-2-thioxo-1,2,3,4-tetrahydro-pyrimidine-5-carboxylic acid 2-(3-nitro-phenyl)-ethyl ester] | 6000 nM | 1000 to 10000 nM | – | – | –
26 | CC1=C(C(=O)OCCc2ccc(Cl)s2)C(CO)NC(=S)N1 (centres unmarked) [1″, 4-hydroxymethyl-6-methyl-2-thioxo-1,2,3,4-tetrahydro-pyrimidine-5-carboxylic acid 2-(5-chloro-thiophen-2-yl)-ethyl ester] | 1600 nM | 1000 to 10000 nM | – | – | –
27 | CC1=C(C(=O)OCCc2ccccc2Cl)C(CO)NC(=S)N1 (centres unmarked) [41″, 4-hydroxymethyl-6-methyl-2-thioxo-1,2,3,4-tetrahydro-pyrimidine-5-carboxylic acid 2-(2-chloro-phenyl)-ethyl ester] | 7200 nM | 1000 to 10000 nM | – | – | –
